In patent US9796671B2, “Aurora kinase inhibitors” (REGENTS OF THE UNIVERSITY OF MINNESOTA, priority 2012, dated 2017):

What was measured:
Aurora B = Aurora B (Homo sapiens, UniProt Q96GD4); assay: Aurora B in vitro kinase assay (histone H3 Ser10 phosphorylation, Western blot); format: biochemical
Procedure: Proteins are resolved by SDS-PAGE and transferred onto polyvinylidene difluoride membranes (Millipore, Mass.), which are blocked with nonfat milk and hybridized with specific primary antibodies. The protein bands are visualized using an enhanced chemiluminescence reagent (GE Healthcare, Pittsburgh, Pa.) after hybridization with a horseradish peroxidase-conjugated secondary antibody.
Reactions are carried out in 1× kinase buffer (25 mM Tris-HCl pH 7.5, 5 mM beta-glycerophosphate, 2 mM dithiothreitol (DTT), 0.1 mM Na3VO4, 10 mM MgCl2 and 5 mM MnCl2) containing 100 μM ATP at 30° C. for 30 minutes. Reactions are stopped and proteins detected by Western blotting.
An in vitro kinase assay was used to determine whether Compound 1 could inhibit Aurora B kinase activity using recombinant Aurora B protein and various concentrations of Compound 1. […] The effect of Compound 1 on Aurora A kinase activity using an in vitro kinase assay was also examined.

Aurora A = target: T1, Aurora A (Homo sapiens, UniProt O14965); assay: Aurora A in vitro kinase assay; format: biochemical; conditions: 1 μM, compared with control
T1 construct: purchased Millipore
T1 sequence (O14965 1-403): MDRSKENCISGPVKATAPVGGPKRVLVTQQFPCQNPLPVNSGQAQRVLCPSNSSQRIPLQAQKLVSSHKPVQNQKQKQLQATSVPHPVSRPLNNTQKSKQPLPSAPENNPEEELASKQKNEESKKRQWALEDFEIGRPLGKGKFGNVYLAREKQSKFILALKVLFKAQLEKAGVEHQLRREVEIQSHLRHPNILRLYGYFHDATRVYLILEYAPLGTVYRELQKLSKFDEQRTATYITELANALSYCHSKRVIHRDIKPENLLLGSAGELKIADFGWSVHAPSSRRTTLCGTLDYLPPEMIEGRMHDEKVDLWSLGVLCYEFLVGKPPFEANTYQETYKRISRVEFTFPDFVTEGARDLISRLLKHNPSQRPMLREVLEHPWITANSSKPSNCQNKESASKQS
Procedure: Proteins are resolved by SDS-PAGE and transferred onto polyvinylidene difluoride membranes (Millipore, Mass.), which are blocked with nonfat milk and hybridized with specific primary antibodies. The protein bands are visualized using an enhanced chemiluminescence reagent (GE Healthcare, Pittsburgh, Pa.) after hybridization with a horseradish peroxidase-conjugated secondary antibody. […] Reactions are carried out in 1× kinase buffer (25 mM Tris-HCl pH 7.5, 5 mM beta-glycerophosphate, 2 mM dithiothreitol (DTT), 0.1 mM Na3VO4, 10 mM MgCl2 and 5 mM MnCl2) containing 100 μM ATP at 30° C. for 30 minutes. Reactions are stopped and proteins detected by Western blotting. An in vitro kinase assay was used to determine whether Compound 1 could inhibit Aurora B kinase activity using recombinant Aurora B protein and various concentrations of Compound 1. […] The effect of Compound 1 on Aurora A kinase activity using an in vitro kinase assay was also examined.

HCT116 cells = assay: Anchorage-independent growth (soft agar colony formation); format: cell-based; conditions: 0.5 μM
Procedure: FIGS. 3A and 3B. Compounds 1-8 suppress the anchorage-independent growth of HCT116 cells. The asterisk indicates a significant (* p<0.05, ** p<0.01) decrease in colony formation in cells treated with each compound compared with the DMSO treated control group. Two concentrations of each compound, 0.5 μM and 5 μM were tested. […] Compounds 2 and 4 had no effect.
(§1) Tumor cells are suspended in basal medium Eagle (BME) medium and added to 0.6% agar, with different concentrations of Compound 1 in a base layer and a top layer of 0.3% agar. The cultures are maintained at 37° C. in a 5% CO2 incubator for 1 to 2 weeks and then colonies are counted under a microscope using the Image-Pro Plus software (v.4) program (Media Cybernetics, Silver Spring, Md.).

MRC-5 normal lung cells = assay: Cytotoxicity (MTS assay); format: cell-based
Procedure: To estimate the cytotoxicity of Compound 1, cells are seeded (8×10^3 cells per well) in 96-well plates and cultured overnight. Cells are fed with fresh medium and treated with different doses of Compound 1. After culturing for various times, the cytotoxicity of Compound 1 is measured using an MTS assay kit (Promega, Madison, Wis.) according to the manufacturer's instructions.
The toxicity of Compound 1 on both MRC-5 normal lung cells and A549 lung cancer cells was then examined.

HCT116 p53−/− cells = assay: Soft agar assay, p53-deficient colon cancer cells; format: cell-based; conditions: Homo sapiens, read-out: inhibition of growth in soft agar
Procedure: as §1
(§2) The effect of compound 1 in a pair of colon cancer cell lines, p53 wildtype (HCT116 p53^+/+) and p53-deficient (HCT116 p53^−/−) cells was also examined to determine whether the sensitivity of cells to compound 1 directly correlates with the status of p53 in cells.

HCT116 p53+/+ cells = assay: Soft agar assay, p53 wildtype colon cancer cells; format: cell-based
Procedure: as §1, §2

Akt1 = Akt1 (Homo sapiens, UniProt P31749); assay: Akt1 in vitro kinase assay; format: biochemical
Sequence of Akt1 (P31749 whole entry, species assumed): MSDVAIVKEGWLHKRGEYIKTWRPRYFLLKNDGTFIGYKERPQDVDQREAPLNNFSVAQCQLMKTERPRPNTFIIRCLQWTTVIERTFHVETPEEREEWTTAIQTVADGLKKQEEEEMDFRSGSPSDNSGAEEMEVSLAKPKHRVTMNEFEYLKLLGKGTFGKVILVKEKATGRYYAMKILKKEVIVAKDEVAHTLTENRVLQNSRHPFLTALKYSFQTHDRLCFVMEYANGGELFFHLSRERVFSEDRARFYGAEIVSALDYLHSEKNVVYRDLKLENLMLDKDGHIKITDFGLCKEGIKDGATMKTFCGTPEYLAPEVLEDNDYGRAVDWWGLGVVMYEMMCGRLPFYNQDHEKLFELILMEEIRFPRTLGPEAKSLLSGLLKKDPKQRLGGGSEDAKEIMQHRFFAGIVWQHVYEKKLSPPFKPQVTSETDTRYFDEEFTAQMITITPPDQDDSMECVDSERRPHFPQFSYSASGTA
Procedure: (§3) According to the kinase profiler assay results, Akt2 also might be a potential target of Compound 1. An Akt1 and Akt2 in vitro kinase assays was performed.

Akt2 = Akt2 (Homo sapiens, UniProt P31751); assay: Akt2 in vitro kinase assay; format: biochemical
Sequence of Akt2 (P31751 whole entry, species assumed): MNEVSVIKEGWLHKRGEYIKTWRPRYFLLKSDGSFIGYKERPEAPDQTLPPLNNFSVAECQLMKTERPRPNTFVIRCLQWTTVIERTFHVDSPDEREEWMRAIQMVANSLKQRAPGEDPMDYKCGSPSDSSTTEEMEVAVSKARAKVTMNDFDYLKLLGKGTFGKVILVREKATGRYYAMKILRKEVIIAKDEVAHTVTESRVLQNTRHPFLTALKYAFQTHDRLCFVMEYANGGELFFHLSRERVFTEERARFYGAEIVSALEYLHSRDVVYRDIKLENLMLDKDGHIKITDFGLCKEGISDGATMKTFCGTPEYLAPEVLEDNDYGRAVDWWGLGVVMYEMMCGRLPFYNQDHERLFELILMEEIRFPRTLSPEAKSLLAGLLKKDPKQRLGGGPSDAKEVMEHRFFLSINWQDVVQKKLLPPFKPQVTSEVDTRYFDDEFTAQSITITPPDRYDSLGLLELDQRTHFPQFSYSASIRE
Procedure: as §3

[1] = system: human A549 lung cancer cell xenografts; assay: A549 xenograft in athymic nude mice, intraperitoneal; format: in vivo
Procedure: Tumor tissues from mice are embedded in a paraffin block and subjected to hematoxylin and eosin (H&E) staining and immunohistochemistry. Tumor tissues are deparaffinized and hydrated, then permeabilized with 0.5% Triton X-100/1 PBS for 10 min, hybridized with Ki-67 (1:500) as the primary antibody and an HRP-conjugated goat anti-rabbit or mouse IgG antibody is used as the secondary antibody. After developing with 3,30-diaminobenzidine, the sections are counterstained with H&E. All sections are observed by microscope and the Image-Pro Plus software (v.4) program (Media Cybernetics).
The ability of Compound 1 to inhibit the growth of human A549 lung cancer cell xenografts in athymic nude mice was then evaluated. Tumor volumes were measured twice a week and mouse weights were determined once a week. Compound 1 caused a marked reduction in tumor size in the human A549 xenograft model. In mice treated with Compound 1 at 20 mg/kg, twice a week intraperitoneally, mean tumor volumes were reduced to 164 mm^3 in comparison with control group (408 mm^3) (P<0.01). […] Moreover, the effects of Compound 1 on a tumor proliferation marker were evaluated by immunohistochemistry and H&E staining of A549 tumor tissues after the 31 days of treatment.

Sequence of Aurora B (Q96GD4 whole entry): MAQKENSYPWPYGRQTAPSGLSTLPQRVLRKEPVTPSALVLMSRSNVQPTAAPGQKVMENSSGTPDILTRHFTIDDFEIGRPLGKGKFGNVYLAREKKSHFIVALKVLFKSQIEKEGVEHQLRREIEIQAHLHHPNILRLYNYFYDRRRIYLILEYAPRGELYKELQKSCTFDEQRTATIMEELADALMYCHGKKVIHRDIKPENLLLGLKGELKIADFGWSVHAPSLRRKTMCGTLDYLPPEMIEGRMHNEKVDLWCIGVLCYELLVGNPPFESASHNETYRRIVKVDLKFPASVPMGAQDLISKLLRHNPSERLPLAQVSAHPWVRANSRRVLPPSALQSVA

SMILES: O=C(/C=C/c1ccc2c(c1)OCO2)/C=C1/C(=O)Nc2ccccc21 [Compound 1]
- inhibition at 0.05 µM (Aurora B; 0.05 μM): 22%
- inhibition at 0.1 µM (Aurora B; 0.1 μM): 50%
- histone H3 (Ser10) phosphorylation band by Aurora B (Aurora B; 1 μM): only a weak histone H (Ser10) band
- concentration required for Aurora B inhibition (Aurora B; discussion statement): ≤ 1 µM
- effect on histone H3 (Ser10) phosphorylation by Aurora A (Aurora A): No effect
- anchorage-independent growth of HCT116 cells (colony formation) (HCT116 cells): best efficiency
- cytotoxic effects on MRC-5 normal lung cells (MRC-5 normal lung cells; 1 μM or less): no obvious cytotoxic effects
- toxicity to MRC-5 normal cells (MRC-5 normal lung cells; 5 μM, 48 hours): not
- toxicity on MRC-5 normal lung cells (MRC-5 normal lung cells; concentrations greater than 10 μM): substantial toxicity
- inhibition at 0.05 µM (HCT116 p53−/− cells; HCT-116, 0.05 μM): 40%
- inhibition at 0.1 µM (HCT116 p53−/− cells; HCT-116, 0.1 μM): > 95%
- inhibition of growth in soft agar (HCT116 p53+/+ cells; 0.05 μM): no inhibition
- inhibition at 0.1 µM (HCT116 p53+/+ cells; Homo sapiens, HCT-116, 0.1 μM, read-out: inhibition of growth in soft agar): 55%
- inhibition at 5 µM (Akt1; 5 μM): 32%
- concentration inhibiting Akt1 kinase activity in vitro (Akt1; discussion statement): ≥ 1 µM
- inhibition at 5 µM (Akt2; 5 μM): 52%
- concentration inhibiting Akt2 kinase activity in vitro (Akt2; discussion statement): ≥ 1 µM
- loss of body weight ([1]; 20 mg/kg, twice a week intraperitoneally): no obvious loss
- mean tumor volume ([1]; 20 mg/kg, twice a week intraperitoneally, control group 408 mm^3, P<0.01): 164 mm^3
- expression of Ki-67 in A549 tumor tissues (immunohistochemistry) ([1]; after the 31 days of treatment): markedly decreased
